# Reference: US20130274838A1, “OPTICAL CONTROL OF CARDIAC FUNCTION” (The Research Foundation of State University of New York, priority 2010, published 2013)
# Experiments:
# [1] = test system: cell pairs of adult canine ventricular myocytes and HEK-ChR2 (gap junctional coupling); assay: Carbenoxolone uncoupling of tandem cell units, dual patch clamp with optical pacing; assay type: cell-based; details: 200 μM carbenoxolone perfusion, light-triggered action potentials before, during and after washout (FIG. 5f)
# Experimental: Dual patch clamp experiments were performed within 48 hours after plating. Briefly, experiments were carried out on heterologous (HEK-ChR2— canine myocyte) cell pairs within 48 hours after plating, as described previously. A dual whole-cell voltage-clamp method was used to control and record the membrane potential of both cells and to measure associated membrane and junctional currents. Each cell of a pair was voltage clamped at the same potential by two separate patch clamp amplifiers (Axopatch 200, Axon Instruments). To record junctional conductance, brief voltage steps (±10 mV, 400 ms) were applied to one cell of a pair, whereas the other cell was held at constant voltage and the junctional currents were recorded from the unstepped cell. Membrane and action potentials were recorded in current-clamp mode. For electrical recordings, glass coverslips with adherent cells were transferred to an experimental chamber mounted on the stage of an inverted microscope (Olympus-IX71) equipped with a fluorescence imaging system. […] When filled, the resistance of the pipettes measured 1-4MΩ. […] Contractility movies were recorded in response to optical pacing before and during administration of carbenoxolone, and upon washout to assess the role of gap junctional coupling in the functionality of the tandem cell unit.
# [2] = test system: cardiac syncytium of neonatal rat cardiomyocytes and HEK-ChR2 (gap junctional coupling); assay: Carbenoxolone uncoupling in cardiac syncytium, contractility under optical pacing; assay type: cell-based; details: 200 μM carbenoxolone for 20 min without perfusion, contractility in response to optical pacing
# Experimental: Carbenoxolone, CBX, (Sigma), a gap junctional uncoupler, was used at a concentration 200 μM in the dual-patch experiments with canine cardiomyocytes and HEK-ChR2 or in the cardiac syncytium of neonatal rat cardiomyocytes and HEK-ChR2. In the latter case, CBX was applied for 20 min (without perfusion) in the co-cultures of HEK-ChR2 cells and cardiomyocytes. Contractility movies were recorded in response to optical pacing before and during administration of carbenoxolone, and upon washout to assess the role of gap junctional coupling in the functionality of the tandem cell unit. Microscopic imaging for confirmation of gene expression or for documenting contractions by optical excitation was done with the Olympus FluoView™ FV1000 confocal system at room temperature. An EMCCD camera (ImagEM EMCCD camera from Hamamatsu, Bridgewater, N.J.) attached to the Olympus FluoView™ FV1000 microscope was used to record contractility movies at 20 fps with 60× oil lens (NA=1.42) using SlideBook 5 software (Intelligent Imaging Innovations, Denver, Colo.). In addition, contractility response was also documented by automatic optical tracking of cell length at 250 Hz using an IonOptix videosystem (IonOptix) attached to a Nikon TE2000 inverted microscope.
compound,measurement,setting,value
"CC1(C)[C@@H](OC(=O)CCC(=O)O)CC[C@]2(C)[C@H]3C(=O)C=C4[C@@H]5C[C@@](C)(C(=O)O)CC[C@]5(C)CC[C@@]4(C)[C@]3(C)CC[C@@H]12 [cabenoxolone, carbenoxolone]",effect of pharmacological uncoupling on light-sensitivity of the myocytes in the TCUs,[1],abolished the light-sensitivity of the myocytes in the TCUs
same,effect of pharmacological uncoupling on light-sensitivity of the myocytes in the TCUs,[2],abolished the light-sensitivity of the myocytes in the TCUs
